Results: patent US20220401448A1, “Pharmaceutical Compositions Comprising an Inhibitor of a Histon-deacetylase (HDACi) and an Agonist of Toll-like-receptor 7 and/or 8 (TLR7 and/or TLR8) and Their Use in the Treatment of Cancer” (priority 2019, published 2022)
In brackets after ≈: the same amount, converted by molar mass. Like-named read-outs stand apart in the source and are kept apart here.

Key:
[1] = test system: OvCa236 primary ovarian cancer cells; assay: Individual effects (IC50), OvCa236; type: cell-based; details: OvCa236, single drug
[2] = test system: Peripheral Blood Mononuclear Cells (PBMC); assay: Induction of apoptosis in PBMC from healthy volunteers; details: 24 h of drug exposure, 1×IC50 (SKOV3 values)
Description: The drug doses (1×IC50) employed for both compound classes were those obtained in SKOV3 cells.

[3] = test system: OvCar3 ovarian cancer cell line; assay: Individual effects (IC50), OvCar3; type: cell-based; details: Homo sapiens, OVCAR-3
[4] = common vehicles; cited from earlier work
[5] = test system: SKOV3 ovarian cancer cell line; assay: MTT proliferation assay, single drugs, SKOV3; type: cell-based; details: Homo sapiens
[6] = test system: OvCa2810 primary ovarian cancer cells; assay: Individual effects (IC50), OvCa2810; type: cell-based; details: OvCa2810, single drug
[7] = test system: OvCa28 primary ovarian cancer cells; assay: MTT proliferation assay, single drugs, OvCa28; type: cell-based; details: for resistance of primary ovarian cancer cells compared to SKOV3: OvCa28 IC50 vs SKOV3 IC50; for IC50: read-out: IC50 (cell growth)
Description: OvCa28 primary ovarian cancer cells were isolated from a pretreated patient (patient number 28). These primary ovarian cancer cells were treated individually with either the HDAC inhibitor Romidepsin or the TLR7 agonist Vesatolimod as shown in FIG. 4. Cell growth was determined by the MTT proliferation assay.

[8] = test system: SKOV3^WT ovarian carcinoma cell line; assay: Screening of SKOV3^WT for HERV expression using qPCR; type: cell-based; details: for ΔCt HERV Henv: untreated 15.87 ± 0.56; for ΔCt HERV KISD: untreated 17.66 ± 0.23; for ΔCt HERV Kpol: untreated 18.16 ± 0.48; for ΔCt HERV Kenv: untreated 18.49 ± 0.45; for ΔCt HERV IDDMK1.2: untreated 18.68 ± 0.41; for ΔCt KERV Kseminoma: untreated 18.90 ± 0.41; for ΔCt HERV V3.1: untreated 19.32 ± 0.41; for ΔCt HERV Kgag: untreated 19.47 ± 0.58; for ΔCt HERV Fpol: untreated 19.69 ± 0.37; for ΔCt HERV KLTR: untreated 19.91 ± 0.60; for ΔCt HERV Eenv: untreated 20.10 ± 0.51; for ΔCt HERV Wprt: untreated 20.48 ± 0.72; for ΔCt HERV FRD1: untreated 21.71 ± 0.60; for ΔCt HERV Wenv: untreated 22.12 ± 0.53; for ΔCt HERV WE1: untreated 22.12 ± 0.62; for ΔCt HERV V1: untreated 22.95 ± 1.89; for ΔCt HERV V2: untreated 23.11 ± 2.07; for ΔCt HERV Penv: untreated 25.26 ± 0.48; for ΔCt HERV Pgag: untreated 25.33 ± 0.31; for ΔCt HERV HC2pol: untreated 25.99 ± 0.57; for ΔCt HERV Ppol: untreated 26.05 ± 0.31; for ΔCt HERV C: untreated 26.20 ± 0.36; for ΔCt HERV MER34.1: untreated 27.96 ± 0.43; for ΔCt HERV T: untreated 28.36 ± 0.87; for ΔCt HERV L: untreated 28.42 ± 1.52; for ΔCt HERV Fc1: untreated 29.68 ± 0.57; for ΔCt HERV Spol: untreated 32.00 ± 0.73
Description: In particular, the SKOV3^WT ovarian carcinoma cell line was screened for HERV expression using quantitative PCT (qPCR). […] Gene expression was considered enforced when more than 3 PCR-cycles of difference (Untreated−Treated) was calculated (n≥3).
18S ribosomal RNA serves as standard.

[9] = test system: NFkB activity; assay: NFkB activity by luciferase assay (NanoLuc reporter vector with NF-κB response element); type: cell-based
Description: In order to make conclusions about NFkB activation, the NFkB activity was analyzed by luciferase assay. The NanoLuc® Reporter Vector with NF-κB Response Element from Promega was used for this purpose.
The pNL3.2.NF-κB-RE[NlucP/NF-κB-RE/Hygro] Vector pNL3.2. (GenBank® Accession Number JQ513377) contains five copies of an NF-κB response element (NF-κB-RE) that drives transcription of a destabilized form of NanoLuc® luciferase, an engineered small (23.3 kDa) luciferase fusion protein. The NlucP reporter consists of NanoLuc® luciferase with a C-terminal fusion to PEST, a protein destabilization domain, which responds more quickly and with greater magnitude to changes in transcriptional activity than unmodified NanoLuc® luciferase. NanoLuc® (Nluc) luciferase is a small enzyme (19.1 kDa) engineered for optimal performance as a luminescent reporter. The luminescent reaction is ATP-independent and designed to suppress background luminescence for maximal assay sensitivity.
Without stimulation we detect about 6000 RLU. […] In summary, loss of NFkB was confirmed not only by Western Blot, but also in this functional test by loss of NFkB functionality using the reporter vector with NF-κB response element.

[10] = test system: SKOV3^WT xenograft; details: i.p. Romidepsin 1 mg/kg, Vesatolimod 5 mg/kg, four times at 3 day intervals
Description: 1 mm^3 tumor pieces were implanted subcutaneosly into six to eight week old female NMRI nude mice by minimal operative intervention. […] Three days after mice were intraperitoneally treated at doses of 1 mg/kg and 5 mg/kg body weight four times at 3 day intervals for 12 consecutive days.

[11] = test system: HERV-V1 and V2; assay: ChIP (anti-H3K9ac) with qPCR of HERV-V1 and V2; type: cell-based; details: SKOV3, OvCar3, OvCa236
Description: While the data concerning the transcriptional upregulation of HERV-V1/V2 upon HDAC inhibition were confirmed, it is unclear whether this is a direct effect of the drugs on epigenetic marks proximate to sites of HERV-V1/V2 integration. For this reason, ChIP-analyses of relevant histones were performed (ChIP=chromatin immunoprecipitation, was performed as described in Nakato R. et al. “Methods for ChIP-seq analysis: A practical workflow and advanced applications”, Methods 2020, doi.org/10.1016/j.ymeth.2020.03.005). Histone H3 along with H2A, H2B and H4 is involved in the structure of chromatin in eukaryotic cells. Histone H3 can undergo several different types of epigenetic modifications that influence cellular processes. These modifications include acetylation, phosphorylation, methylation, ubiquitination, and ADP-ribosylation and occur on the N-terminal tail domains of histone H3. […] In most species, histone H3 is primarily acetylated at lysine 9, 14, 18, and 27. […] We analyzed not only the ovarian cell lines SKOV3 and OVCar3, but also the primary cancer cell line OvCa236 derived from a patient. […] We therefore performed Immunoprecipitation using a anti-histone H3K9ac (Acetyl H3K9) polyclonal antibody and performed quantitative PCT (qPCR) as already described in Example 2.
HERV-V1 and V2, respectively, were analyzed separately. […]

[12] = test system: SKOV3 cells; assay: Dose-response of HERV transcription by qPCR, SKOV3; details: FIG. 9
Description: The term ΔCt reflects the difference (Δ) in cycle (C) thresholds (t). […] Measurement of specific RNA transcripts like HERV-V1/V2 by qPCR is usually performed in relation to the standard 18S, more or less transcription products are expressed in + or −ΔCt. Furthermore, differences in ΔCt between treated and untreated cells were shown as ΔΔCt.

[13] = OvCar3, single drug, read-out: IC50
[14] = SK-OV-3, SKOV3, single drug, read-out: IC50

| Molecule | IC50 [1] [µM] | rate of apoptosis [2] | IC50 [3, 13] [µM] | dissolution [4] | IC50 [5, 14] [µM] | IC50 [6] [µM] | resistance of primary ovarian cancer cells compared to SKOV3 [7] [fold] | ΔCt HERV Henv ([8]; 1x drug) | ΔCt HERV KISD ([8]; 1x drug) | ΔCt HERV Kpol ([8]; 1x drug) | ΔCt HERV Kenv ([8]; 1x drug) | ΔCt HERV IDDMK1.2 ([8]; 1x drug) | ΔCt KERV Kseminoma ([8]; 1x drug) | ΔCt HERV V3.1 ([8]; 1x drug) | ΔCt HERV Kgag ([8]; 1x drug) | ΔCt HERV Fpol ([8]; 1x drug) | ΔCt HERV KLTR ([8]; 1x drug) | ΔCt HERV Eenv ([8]; 1x drug) | ΔCt HERV Wprt ([8]; 1x drug) | ΔCt HERV FRD1 ([8]; 1x drug) | further results |
| --- | --- | --- | --- | --- | --- | --- | --- | --- | --- | --- | --- | --- | --- | --- | --- | --- | --- | --- | --- | --- | --- |
| CC(C)Cn1cnc2c(N)nc3ccccc3c21 [Imiquimod, imiquimod] | 500 | about 3% | 23 | difficult to dissolve | 15 | 500 | – | – | – | – | – | – | – | – | – | – | – | – | – | – | – |
| C/C=C1\NC(=O)[C@H]2CSSCC/C=C/[C@H](CC(=O)N[C@H](C(C)C)C(=O)N2)OC(=O)[C@H](C(C)C)NC1=O [Romidepsin, romidepsin] | 0.003 | about 3% | – | – | – | 0.006 | ~188 | 14.87 ± 0.30 | 17.10 ± 0.35 | 18.19 ± 0.51 | 18.48 ± 0.26 | 17.66 ± 0.27 | 19.70 ± 0.76 | 18.63 ± 0.36 | 18.57 ± 0.43 | 19.67 ± 0.22 | 21.02 ± 1.95 | 19.99 ± 0.51 | 20.97 ± 1.15 | 22.07 ± 0.64 | IC50 [7]: 0.75 µg/mL (≈ 1.39 µM); ΔCt HERV Wenv ([8]; 1x drug): 22.33 ± 0.33; ΔCt HERV WE1 ([8]; 1x drug): 21.92 ± 1.02; ΔCt HERV V1 ([8]; 1x drug): 15.30 ± 0.36; ΔCt HERV V2 ([8]; 1x drug): 15.24 ± 0.25; ΔCt HERV Penv ([8]; 1x drug): 25.46 ± 0.60; ΔCt HERV Pgag ([8]; 1x drug): 26.02 ± 0.50; ΔCt HERV HC2pol ([8]; 1x drug): 24.85 ± 0.35; ΔCt HERV Ppol ([8]; 1x drug): 26.55 ± 0.39; ΔCt HERV C ([8]; 1x drug): 26.79 ± 0.97; ΔCt HERV MER34.1 ([8]; 1x drug): 25.78 ± 0.13; ΔCt HERV T ([8]; 1x drug): 29.31 ± 0.84; ΔCt HERV L ([8]; 1x drug): 27.62 ± 0.95; ΔCt HERV Fc1 ([8]; 1x drug): 28.17 ± 3.80; ΔCt HERV Spol ([8]; 1x drug): 31.04 ± 1.11; ΔCt HERV P4.6 ([8]; 1x drug, untreated […]): 31.65 ± 1.16; IC50 [3]: 0.007 µM; IC50 ([5]; SK-OV-3): 0.004 µM; IC50 ([5]; SK-OV-3, read-out: IC50 (cell growth)): 0.004 µg/mL |
| CCCCOc1nc(N)c2c(n1)N(Cc1cccc(CN3CCCC3)c1)CC(=O)N2 [Vesatolimod, vesatolimod] | 32 | about 8% | 32 | better dissolution profile in common vehicles | 39 | 40 | ~2 | – | – | – | – | – | – | – | – | – | – | – | – | – | IC50 ([7]; OvCa28, single drug, MTT): 30 µg/mL (≈ 73.1 µM); NFkB activity (reporter) ([9]; in both cell lines, OvCar 3 and SKOV3, without stimulation about 6000 RLU): slightly reduced activity; total tumor volume [10]: did reduce the total tumor volume; IC50 ([5]; SK-OV-3, SKOV3, single drug, MTT, read-out: IC50 (cell growth)): 12.5 µg/mL |
| O=C(CCCCCCC(=O)Nc1ccccc1)NO [Vorinostat, vorinostat] | – | about 6% | – | – | – | – | – | 15.51 ± 0.31 | 17.71 ± 0.19 | 18.81 ± 0.30 | 19.26 ± 1.00 | 18.29 ± 0.29 | 20.25 ± 0.18 | 19.22 ± 0.33 | 19.17 ± 0.41 | 20.37 ± 0.49 | 19.31 ± 0.42 | 20.08 ± 0.25 | 20.80 ± 0.34 | 22.51 ± 0.45 | expression of HERV-V1 and V2 transcripts after H3K9ac immunoprecipitation [11]: enhanced; expression of HERV-V1 and V2 [12]: increased; ΔCt HERV Wenv ([8]; 1x drug): 22.03 ± 0.34; ΔCt HERV WE1 ([8]; 1x drug): 22.18 ± 0.32; ΔCt HERV V1 ([8]; 1x drug): 15.48 ± 0.78; ΔCt HERV V2 ([8]; 1x drug): 15.46 ± 0.79; ΔCt HERV Penv ([8]; 1x drug): 25.39 ± 0.49; ΔCt HERV Pgag ([8]; 1x drug): 25.45 ± 0.11; ΔCt HERV HC2pol ([8]; 1x drug): 25.52 ± 0.39; ΔCt HERV Ppol ([8]; 1x drug): 26.34 ± 0.33; ΔCt HERV C ([8]; 1x drug): 27.84 ± 0.59; ΔCt HERV MER34.1 ([8]; 1x drug): 26.62 ± 0.62; ΔCt HERV T ([8]; 1x drug): 28.24 ± 0.72; ΔCt HERV L ([8]; 1x drug): 28.08 ± 0.90; ΔCt HERV Fc1 ([8]; 1x drug): 30.36 ± 0.84; ΔCt HERV Spol ([8]; 1x drug): 30.80 ± 0.75; HERV-V2 expression levels ([8]; SKOV3, qPCR, FIG. 1B): increased |
| TNFα | – | – | – | – | – | – | – | – | – | – | – | – | – | – | – | – | – | – | – | – | response of NF-κB reporter vector ([9]; positive control, inflammatory stimulation): 20.000 RLU |
